The text below walks through data of ChEMBL document CHEMBL4431396, “Novel Autotaxin Inhibitors for the Treatment of Osteoarthritis Pain: Lead Optimization via Structure-Based Drug Design” (ACS Med Chem Lett, 2016).

The structures appear in SMILES notation.

Common to all, as to type: ADME, organism-based
Data set [1] in a line: Oral bioavailability in rat at 10 mg/kg administered as single dose. As to conditions: in vivo.
A short description of data set [2]: Half life in rat at 1 mg/kg, iv. As to conditions: in vivo.
A short description of data set [3]: AUC in rat at 10 mg/kg, po administered as single dose. As to conditions: in vivo.
Another data set relates to Rattus norvegicus. Description: Time duration for plasma concentration stays above in vitro IC80 level in rat at 10 mg/kg, po administered as single dose. As to conditions: in vivo.
The nature of data set [4]: Cmax in rat at 10 mg/kg, po administered as single dose. On the set-up: dose 10 mg/kg, route oral. As to conditions: in vivo.
A short description of data set [5]: Volume of distribution at steady state in rat at 1 mg/kg, iv. As to conditions: in vivo, read-out: Vdss.

As for `O=C(COCCc1cnn[nH]1)N1Cc2cnc(NC3Cc4ccccc4C3)nc2C1`, the bioavailability (commonly dose-corrected exposure relative to a reference, in per cent) in data set [1] came out at 23%. Also, in data set [2], the half-life – broadly, the time in which the quantity being followed falls by half – was 1.14 h. Also, the AUC (in general, concentration integrated over time) in data set [3] was 3.44 µM·h. The Time in the data set with Rattus norvegicus is > 12 h. Further, the concentration in data set [4] peaked (Cmax) at 660 nM. Moreover, the Vd in data set [5] was 1.4 L/kg.
